Molecules are shown by their SMILES.

Drawing on patent publication US20230002367A1, “BIFUNCTIONAL COMPOUNDS” (Hoffmann-La Roche Inc., priority 2019, published 2023), this text covers Emax and DC50 for 6 compounds.

For the assay, the target named is T1, SMARCA2 (Homo sapiens, UniProt P51531).
T1 construct: endogenous in cells
Description: SMARCA2 HiBiT degradation assay (cellular). It is filed as cell-based. To be noted: for Emax: A549, Emax = amount of residual protein remaining in the cell following compound treatment; for DC50: SMARCA2 HiBiT cells, luminescence readout, 11-point titration from 10 μM, 6 hours or 16 hours, read-out: HiBit A549 SMARCA2 IP.

T1 sequence (P51531 whole entry): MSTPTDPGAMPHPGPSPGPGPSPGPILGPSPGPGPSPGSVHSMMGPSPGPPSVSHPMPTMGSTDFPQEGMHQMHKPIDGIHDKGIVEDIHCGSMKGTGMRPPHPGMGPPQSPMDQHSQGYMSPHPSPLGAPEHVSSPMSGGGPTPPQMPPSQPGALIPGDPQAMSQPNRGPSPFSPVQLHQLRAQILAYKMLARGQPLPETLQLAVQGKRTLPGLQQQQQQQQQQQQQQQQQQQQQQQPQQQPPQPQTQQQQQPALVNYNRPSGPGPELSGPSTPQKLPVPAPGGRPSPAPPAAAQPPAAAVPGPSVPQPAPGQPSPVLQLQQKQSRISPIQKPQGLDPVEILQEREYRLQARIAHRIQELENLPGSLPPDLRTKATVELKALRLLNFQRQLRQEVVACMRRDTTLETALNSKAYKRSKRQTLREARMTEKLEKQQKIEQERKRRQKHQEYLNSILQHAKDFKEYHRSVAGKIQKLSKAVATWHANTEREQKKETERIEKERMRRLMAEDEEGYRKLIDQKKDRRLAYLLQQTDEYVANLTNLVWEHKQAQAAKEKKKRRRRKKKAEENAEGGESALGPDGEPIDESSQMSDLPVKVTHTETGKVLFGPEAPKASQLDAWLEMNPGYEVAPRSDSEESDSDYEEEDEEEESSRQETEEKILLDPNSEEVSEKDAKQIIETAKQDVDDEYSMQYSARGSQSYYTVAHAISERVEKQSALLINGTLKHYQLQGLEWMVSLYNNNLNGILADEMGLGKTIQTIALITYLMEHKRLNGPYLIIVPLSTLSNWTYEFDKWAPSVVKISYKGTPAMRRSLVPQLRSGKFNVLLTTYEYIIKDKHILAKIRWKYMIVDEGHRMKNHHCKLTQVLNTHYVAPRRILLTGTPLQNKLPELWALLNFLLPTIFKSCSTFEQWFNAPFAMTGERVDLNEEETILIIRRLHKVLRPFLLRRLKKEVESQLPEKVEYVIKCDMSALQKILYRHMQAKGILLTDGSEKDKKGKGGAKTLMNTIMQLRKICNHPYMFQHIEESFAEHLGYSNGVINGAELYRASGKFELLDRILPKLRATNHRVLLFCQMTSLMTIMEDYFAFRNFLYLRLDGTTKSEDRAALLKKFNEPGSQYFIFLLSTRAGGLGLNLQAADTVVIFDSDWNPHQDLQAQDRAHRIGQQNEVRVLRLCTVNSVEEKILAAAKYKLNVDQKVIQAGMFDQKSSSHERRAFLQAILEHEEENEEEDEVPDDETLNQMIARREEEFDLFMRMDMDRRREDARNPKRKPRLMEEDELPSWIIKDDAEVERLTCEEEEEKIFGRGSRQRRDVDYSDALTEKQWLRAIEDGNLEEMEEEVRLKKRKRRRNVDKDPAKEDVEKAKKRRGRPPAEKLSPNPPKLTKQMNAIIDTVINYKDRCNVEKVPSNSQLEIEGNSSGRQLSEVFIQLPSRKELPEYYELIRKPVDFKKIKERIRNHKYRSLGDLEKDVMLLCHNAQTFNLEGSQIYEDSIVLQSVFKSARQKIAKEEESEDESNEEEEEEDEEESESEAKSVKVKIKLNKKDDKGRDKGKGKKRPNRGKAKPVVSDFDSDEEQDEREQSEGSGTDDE

For the compound `Cc1ncsc1-c1ccc(CNC(=O)[C@@H]2C[C@@H](O)CN2C(=O)[C@@H](NC(=O)CCCCCCCCC(=O)N2CC=C(c3cc(-c4ccccc4O)nnc3N)CC2)C(C)(C)C)cc1` [Example 17, (2S,4R)-1-[(2S)-2-[[10-[4-[3-amino-6-(2-hydroxyphenyl)pyridazin-4-yl]-3,6-dihydro-2H-pyridin-1-yl]-10-oxo-decanoyl]amino]-3,3-dimethyl-butanoyl]-4-hydroxy-N-[[4-(4-methylthiazol-5-yl)phenyl]methyl]pyrrolidine-2-carboxamide], the maximal response (Emax) was determined as 50% and the DC50 turned out to be 2820 nM.

In the case of `Cc1ncsc1-c1ccc(CNC(=O)[C@@H]2C[C@H](O)CN2C(=O)[C@@H](NC(=O)CCCCCC(=O)N2CCC(Cc3cccc(N4C5CCC4CN(c4cc(-c6ccccc6O)nnc4N)C5)c3)CC2)C(C)(C)C)cc1` [Example 14, (2S,4S)-1-[(2S)-2-[[7-[4-[[3-[3-[3-amino-6-(2-hydroxyphenyl)pyridazin-4-yl]-3,8-diazabicyclo[3.2.1]octan-8-yl]phenyl]methyl]-1-piperidyl]-7-oxo-heptanoyl]amino]-3,3-dimethyl-butanoyl]-4-hydroxy-N-[[4-(4-methylthiazol-5-yl)phenyl]methyl]pyrrolidine-2-carboxamide], the Emax was determined as 38% and the DC50 stood at 995 nM.

For the compound `Cc1ncsc1-c1ccc([C@H](C)NC(=O)[C@@H]2C[C@@H](O)CN2C(=O)[C@@H](NC(=O)CCCCCCCCCCCCC(=O)N2CCN(c3ccc(N4CCCC(Oc5cc(-c6ccccc6O)nnc5N)C4)cc3)CC2)C(C)(C)C)cc1` (mixture of isomers) [Example 76, rac-(2S,4R)-4-hydroxy-1-[rac-(2S)-2-[[14-[4-[4-[3-[3-amino-6-(2-hydroxyphenyl)pyridazin-4-yl]oxy-1-piperidyl]phenyl]piperazin-1-yl]-14-oxo-tetradecanoyl]amino]-3,3-dimethyl-butanoyl]-N-[rac-(1S)-1-[4-(4-methylthiazol-5-yl)phenyl]ethyl]pyrrolidine-2-carboxamide], the maximal effect (Emax) came to 31% and the DC50 is 207 nM.

Consider `Cc1ncsc1-c1ccc([C@H](C)NC(=O)[C@@H]2C[C@@H](O)CN2C(=O)[C@@H](NC(=O)CCCCCCCCC(=O)N2CCN(c3cccc(N4CCCC(Oc5cc(-c6ccccc6O)nnc5N)C4)c3)CC2)C(C)(C)C)cc1` (mixture of isomers) [Example 91, rac-(2S,4R)-4-hydroxy-1-[rac-(2S)-2-[[10-[4-[3-[3-[3-amino-6-(2-hydroxyphenyl)pyridazin-4-yl]oxy-1-piperidyl]phenyl]piperazin-1-yl]-10-oxo-decanoyl]amino]-3,3-dimethyl-butanoyl]-N-[rac-(1S)-1-[4-(4-methylthiazol-5-yl)phenyl]ethyl]pyrrolidine-2-carboxamide], for which the Emax was 44% and the DC50 was 600 nM.

Consider `Cc1ncsc1-c1ccc(CNC(=O)[C@@H]2C[C@@H](O)CN2C(=O)[C@@H](NC(=O)CCCCCCCCC(=O)NC(COc2cc(-c3ccccc3O)nnc2N)c2ccccc2)C(C)(C)C)cc1` (mixture of isomers) [Example 63, N-[2-[3-amino-6-(2-hydroxyphenyl)pyridazin-4-yl]oxy-1-phenyl-ethyl]-N′-[rac-(1S)-2,2-dimethyl-1-[rac-(2S,4R)-4-hydroxy-2-[[4-(4-methylthiazol-5-yl)phenyl]methylcarbamoyl]pyrrolidine-1-carbonyl]propyl]decanediamide], for which the maximum response (Emax) was 48% and the DC50 was determined as 798 nM.

On to `Cc1ncsc1-c1ccc([C@H](C)NC(=O)[C@@H]2C[C@@H](O)CN2C(=O)[C@@H](NC(=O)CCCCCCCCCCC(=O)N2CCN(CCOc3cccc(N4CCCC(Oc5cc(-c6ccccc6O)nnc5N)C4)c3)CC2)C(C)(C)C)cc1` (mixture of isomers) [Example 72, rac-(2S,4R)-4-hydroxy-1-[rac-(2S)-2-[[12-[4-[2-[3-[3-[3-amino-6-(2-hydroxyphenyl)pyridazin-4-yl]oxy-1-piperidyl]phenoxy]ethyl]piperazin-1-yl]-12-oxo-dodecanoyl]amino]-3,3-dimethyl-butanoyl]-N-[rac-(1S)-1-[4-(4-methylthiazol-5-yl)phenyl]ethyl]pyrrolidine-2-carboxamide], for which the Emax turned out to be 35% and the DC50 stood at 421 nM.
